# In US6528516B1, “Methods for reducing intraocular pressure using A3 adenosine receptor antagonists” (Trustees of the University of Pennsylvania, The Center for …, priority 1998, dated 2003):
# pEC50: −log10 of the molar value. “Also recorded” adds a separate entry of the source.
# What was measured:
# Bovine PE cells = assay: Intracellular Ca2+ of PE cells (fura-2); format: cell-based; details: for effect of TMX on the Ca2+ response to ATP: 10 μM TMX, 100 μM ATP, 20-sec applications
# Experimental: Bovine PE cells grown on coverslips for 2-4 days were loaded with 5 μM fura-2 μAM for 30-45 min at room temperature, and then rinsed and maintained in fura-free solution before beginning data acquisition. The coverslips were mounted on a Nikon Diaphot microscope and visualized with a ×40 oil-immersion fluorescence objective. The emitted fluorescence (510 nm) from 10-12 confluent cells was sampled at 1 Hz following excitation at 340 nm and 380 nm, and the ratio determined with a Delta-Ram system and Felix software (Photon Technology International Inc., Princeton, N.J.). The ratio of light excited at 340 nm to that at 380 nm was converted into Ca^2+ concentration using the method of Grynkiewicz et al. (J. Biol. Chem. 260:3440-3450, 1985). […] Rmin was obtained by bathing cells in a Ca^2+ free isotonic solution of pH 8.0 containing 10 mM EGTA and 5 μM ionomycin. R^max was obtained by bathing the cells in isotonic solution with 1.3 mM Ca^2+ and 5 μM ionomycin. Calibration was performed separately for each experiment. Baseline levels from PE cells in the absence of fura-2 were subtracted from records to control for autofluorescence. Experiments were performed predominantly at room temperature, but several trials were performed at 37° C. using a temperature control unit from Warner Instrument Corp., (Hamden, Conn.). Cells were perfused with an isotonic solution containing (in mM) 105 NaCl, 6HEPES (acid), 4HEPES (Na^+), 1.3 CaCl2, 1 MgCl2, 4 KCl, 5 glucose and 90 mannitol, at an osmolarity of 317 mOsm, pH 7.4.
# [1] = system: bovine pigmented ciliary epithelial (PE) cells; assay: Cell volume (shrinkage) of PE cells in isoosmotic suspension, Coulter Counter; format: cell-based; details: for effect of tamoxifen alone on PE cell volume: absence of ATP, 30-min observation
# [2] = system: swelling-activated Cl− channels of NPE cells; assay: Regulatory volume decrease (RVD) of NPE cells after hypotonic swelling; format: cell-based, human; details: for effect on cell volume after RVD: TMX added at t=10 min, conclusion of the RVD
# [3] = system: large-conductance Cl− channel, NIH 3T3 fibroblasts transfected with MDR1; details: NIH 3T3 fibroblasts after MDR1 transfection and growth in colchicine; read-out: EC50 for activation of large-conductance Cl− channel; cited from earlier work
# [4] = 6 μM tamoxifen + 10 μM ATP, 5 μM gramicidin D, Cl− present, FIG. 12A
# [5] = 6 μM tamoxifen + 10 μM ATP, FIG. 8C
# [6] = 10 μM tamoxifen + 100 μM ATP, FIG. 15, first 6 time points
# [7] = 10 μM tamoxifen + 100 μM ATP, FIG. 16A
# [8] = 100 μM ATP + 10 μM TMX, FIG. 13C
# [9] = 100 μM ATP + 10 μM agent, FIG. 13A
# [10] = 100 μM ATP + 10 μM agent, FIG. 14A
# [11] = ATP + agent (ATP+TMX; ATP+atropine), FIG. 13B
# [12] = ATP + tamoxifen, absence of Cl− channel inhibitors, FIG. 12B
structure (smiles),measurement,setting,value
CC/C(=C(\c1ccccc1)c1ccc(OCCN(C)C)cc1)c1ccccc1 [tamoxifen],effect of TMX on the Ca2+ response to ATP,Bovine PE cells,does not alter the magnitude of the response
same,effect of TMX on the Ca2+ response to ATP,Bovine PE cells; listed as TMX,did not affect the size
same,change (Δ) in intracellular Ca2+,Bovine PE cells; 10 μM tamoxifen alone,7 ± 6 nM
same,effect of tamoxifen alone on Ca2+,Bovine PE cells; tamoxifen alone,no significant effect
same,steady-state cell volume (v∞),"[1]; 3 μM ATP+10 μM TMX, FIG. 8B",96.7±0.4%
same,time constant of the shrinkage (τ),"[1]; 3 μM ATP+10 μM TMX, FIG. 8B",5.8 ± 2.1 min
same,steady-state cell volume (v∞),[1]; [4],90.6%±1.1%
same,time constant of the shrinkage (τ),[1]; [4],13.2 ± 3.2 min
same,steady-state cell volume (v∞),[1]; [5],95.7±0.7%
same,time constant of the shrinkage (τ),[1]; [5],6.6 ± 3.2 min
same,steady-state cell volume (v∞),"[1]; 10 μM ATP + 6 μM TMX, FIG. 10A",92.8±0.8%
same,time constant of the shrinkage (τ),"[1]; 10 μM ATP + 6 μM TMX, FIG. 10A",11.4 ± 0.3 min
same,steady-state cell volume (v∞),"[1]; 10 μM ATP+10 μM TMX, FIG. 8B",95.7±0.3%
same,time constant of the shrinkage (τ),"[1]; 10 μM ATP+10 μM TMX, FIG. 8B",1.4 ± 0.7 min
same,effect of agent on shrinkage in the presence of ATP,"[1]; 10 μM agent, 100 μM ATP, FIG. 13A",enhanced shrinkage
same,steady-state cell volume (v∞),[1]; [6],89.7±6.1%
same,time constant of the shrinkage (τ),[1]; [6],22.9 ± 19.0 min
same,steady-state cell volume (v∞),[1]; [7],93.9±1.0%
same,time constant of the shrinkage (τ),[1]; [7],15.6 ± 5.0 min
same,steady-state cell volume (v∞),[1]; [8],89.6±1.9%
same,time constant of the shrinkage (τ),[1]; [8],11.3 ± 4.7 min
same,steady-state cell volume (v∞),[1]; [9],94.1±0.6%
same,time constant of the shrinkage (τ),[1]; [9],6.5 ± 2.3 min
same,steady-state cell volume (v∞),[1]; [10],94.8±0.4%
same,time constant of the shrinkage (τ),[1]; [10],2.2 ± 10.8 min
same,effect of tamoxifen on the ATP-triggered shrinkage,[1]; 6-10 μM tamoxifen with ATP,strongly enhanced; also recorded: enhanced the response; also recorded: enhanced the ATP-triggered shrinkage
same,steady-state cell volume (v∞),[1]; [11],88.4±0.5%
same,time constant of the shrinkage (τ),[1]; [11],7.2 ± 0.9 min
same,steady-state cell volume (v∞),[1]; [12],94.2%±0.3%
same,time constant of the shrinkage (τ),[1]; [12],4.4 ± 0.8 min
same,effect of tamoxifen alone on PE cell volume,[1],no consistent response
same,effect of tamoxifen alone on PE cell volume,[1]; listed as Tamoxifen,no consistent effect
same,effect on regulatory volume decrease (RVD),[2]; TMX added at t=5 min,reduced the magnitude of the RVD
same,effect on regulatory volume decrease (RVD),"[2]; TMX added at t=5 min, listed as TMX",partially inhibited the steady-state response
same,effect on cell volume after RVD,[2],did not affect cell volume
same,effect on cell volume after RVD,[2]; listed as TMX,no effect on cell volume
same,effect on regulatory volume decrease (RVD),"[2]; TMX added at the time of hypotonic stress, 5 μM gramicidin D",completely abolished the RVD
same,effect on regulatory volume decrease (RVD),"[2]; TMX added at the time of hypotonic stress, 5 μM gramicidin D, listed as TMX",abolished the RVD
same,pEC50,[3],~4.82
